{"source": "patent US20160324916A1", "about": "“PROCESS FOR THE SYNCHRONIZATION OF OVULATION FOR TIMED BREEDING WITHOUT HEAT DETECTION” (priority 2003, published 2016)", "key": {"mature postpartum sows": {"system": "mature postpartum sows", "experiment": "Intravulvar injection at estrus detection in mature postpartum sows, AI breeding (Example 2)", "format": "in vivo, swine", "conditions": "50 mcg intravulvar at estrus detection", "method": "Sows were assigned randomly in blocks of two to either control or to be injected intravulvar with 50 mcg of deslorelin in SAIB at the time of estrus detection for sows first detected in estrus in the a.m. and 12 hours later for those first detected in estrus in the p.m. Treated animals were bred AI upon detected estrus and again 24 hours later if still in estrus. Controls received a saline injection on first detected estrus behavior estrus detection and were bred according to the farm's normal procedures."}, "postpartum sows": {"system": "postpartum sows", "experiment": "Single timed injection 96 hours post-weaning and single timed insemination without estrus detection in postpartum sows (Example 3)", "format": "in vivo, swine", "conditions": "50 mcg in SAIB 96 hours post-weaning, single timed insemination, no estrus detection", "method": "Approximately 170 postpartum sows were randomly divided into two equal groups comprised of controls and treated. Following weaning, the controls were detected for estrus and bred following the normal standard operating procedures for the farms on which they resided. The treated sows received a 50 mcg dose of deslorelin in SAIB at 96 hours post-weaning and were bred with a single insemination 28+/−2 hours later with no regard to estrus detection. The sows were examined for pregnancy by ultrasound at 21 days and slaughtered around 28 days post breeding. The entire reproductive tract was removed and corpora lutea and embryos were counted."}}, "data": [{"smiles": "CCNC(=O)[C@@H]1CCCN1C(=O)[C@H](CCCN=C(N)N)NC(=O)[C@H](CC(C)C)NC(=O)[C@@H](Cc1c[nH]c2ccccc12)NC(=O)[C@H](Cc1ccc(O)cc1)NC(=O)[C@H](CO)NC(=O)[C@H](Cc1c[nH]c2ccccc12)NC(=O)[C@H](Cc1cnc[nH]1)NC(=O)[C@@H]1CCC(=O)N1", "note": "[Deslorelin, deslorelin]", "values": [{"measurement": "Pregnancy rates, Control versus Treated", "setting": "mature postpartum sows", "value": "no significant difference"}, {"measurement": "Pregnancy Rate", "setting": "postpartum sows", "value": 71, "unit": "%"}]}]}
